Laboratory results from US12678488B2, “Batch management method for improving farrowing rate or number of piglets born alive in swine” (priority 2024, dated 2026).
“Also recorded” adds a separate entry of the source. Marks after values point to notes of the source that are not given here.

Key:
[1] = test system: Landrace x Large White reserve sows; test: B-Scan ultrasonic monitoring of follicles: ovulation time and ovarian cyst in gilts (Example 2); type: in vivo, pigs
Description: Landrace x Large White reserve sows, about 230 days old, were randomly divided into a batch farrowing with FTAI and batch farrowing with FTAI combined with different doses of 1-[bis(4-cyanophenyl)methyl]-1,2,4-triazole groups, and during the experiment, the experimental sows in each group were fed regularly and gained free access to water according to the requirements of feeding management in the farm.
Referring to the dosage of 1-[bis(4-cyanophenyl)methyl]-1,2,4-triazole in clinical medicine and using standard weight-dosage conversion, the recommended dosage of 1-[bis(4-cyanophenyl)methyl]-1,2,4-triazole for sows was 50-150 μg/kg·BW/day, orally for consecutive 5 days, as derived by conversion. In addition, the applicant previously studied uniparous cows, and in the ovulation induction scheme, the reference dosage of 1-[bis(4-cyanophenyl)methyl]-1,2,4-triazole was 60-200 μg/kg·BW, administered in a single dose; furthermore, by means of conversion in conjunction with the dosage for model animals (mice) previously in the laboratory, various dosages were designed. The treatment methods of hormones and drugs for sows in each group were as follows: • batch farrowing with FTAI: the sows were fed with an altrenogest oral solution at 20 mg/animal at the same time every day, for 18 days; PMSG at 1000 IU/animal was injected intramuscularly 42 h after the last feeding with altrenogest, GnRH at 100 μg/animal was injected intramuscularly 80 h after the injection of PMSG, a first timed insemination was performed 24 h after the injection of GnRH, and a second timed insemination was performed 16 h after the first insemination.
(§1) Treatment group 1: the hormone treatment and mating schemes for gilts were the same as FTAI. The difference lay in that PMSG at 1000 IU/gilt was injected intramuscularly 42 h after the last feeding with altrenogest, and 1-[bis(4-cyanophenyl)methyl]-1,2,4-triazole at 12 μg/kg·BW/day was administered orally 8 h after the injection of PMSG, for 1 day.
as §1, with “2:” for “1:”, “2 days.” for “1 day.”
as §1, with “3:” for “1:”, “20” for “12”
as §1, with “4:” for “1:”, “sows” for “gilts”, “1-[bis (4-cyanophenyl)methyl]-1,2,4-triazole” for “1-[bis(4-cyanophenyl)methyl]-1,2,4-triazole”, “20” for “12”, “2 days.” for “1 day.”
as §1, with “5:” for “1:”, “IU/animal” for “IU/gilt”, “20” for “12”, “3 days.” for “1 day.”
as §1, with “6:” for “1:”, “IU/animal” for “IU/gilt”, “20” for “12”, “5 days.” for “1 day.”
Treatment group 7: the hormone treatment and mating schemes for gilts were the same as FTAI. […]

[2] = test system: batch farrowing sows; test: Previous experiment of feeding batch farrowing sows with different doses at different times; type: in vivo, pigs; details: application dosage and oral administration time of clinical medicine and bovine superovulation
Description: In the disclosure, the administration dosage of 1-[bis(4-cyanophenyl)alkyl]-1,2,4-triazole is generally 10-50 μg/kg·BW administered in a single dose, preferably 12-30 μg/kg·BW administered in a single dose, further preferably 12-25 μg/kg·BW administered in a single dose, e.g., 13, 14, 15, 16, 17, 18, 19, 20, 21, 22, or 23 μg/kg·BW. Alternatively, it can be administered in two doses. As long as the total administration dosage of the two doses is within a range of 10-50 μg/kg·BW, the dosage of each administration is not particularly limited, for example, each administration dosage is generally within a range of 1-40 μg/kg·BW. In the case of two doses, the time interval between the two instances of administration is 8-30 hours, preferably 9-28 hours, more preferably 10-26 hours, further preferably 12-25 hours, 14-24 hours, etc. If the administration dosage is too high, it tends to affect the estrus and ovulation in animals and even cause ovarian cysts. The administration dosage of the disclosure is important.

[3] = 80 and 160 μg/kg·BW/day for 5 consecutive days (treatment groups 9 and 10)
[4] = Example 2 Treatment group 1: 12 μg/kg·BW/day orally, 1 day, gilts
[5] = Example 2 Treatment group 2: 12 μg/kg·BW/day orally, 2 days, gilts
[6] = Example 2 Treatment group 3: 20 μg/kg·BW/day orally, 1 day, gilts
[7] = Example 2 Treatment group 4: 20 μg/kg·BW/day orally, 2 days, gilts
[8] = Example 2 Treatment group 5: 20 μg/kg·BW/day orally, 3 days, gilts
[9] = Example 2 Treatment group 6: 20 μg/kg·BW/day orally, 5 days, gilts
[10] = Example 2 Treatment group 7: 40 μg/kg·BW/day orally, 1 day, gilts
[11] = Example 2 Treatment group 8: 40 μg/kg·BW/day orally, 5 days, gilts
[12] = Example 2 Treatment group 9: 80 μg/kg·BW/day orally, 5 days, gilts
[13] = Example 2 Treatment group 10: 160 μg/kg·BW/day orally, 5 days, gilts
[14] = gilts, with the increase of the dosage
[15] = low-dose, batch farrowing with FTAI

## N#Cc1ccc(C(c2ccc(C#N)cc2)n2cncn2)cc1 [1-[bis(4-cyanophenyl)methyl]-1,2,4-triazole]
[1]; [3]
  ovarian cyst: had a cyst problem
  ovulation for 10 days after stopping taking altrenogest: did not ovulate
[1]; [4]
  Cyst ratio (%): 0.00^b %
  Interval from stopping taking Altrenogest to ovulation (h): 170.13 ± 3.87^a h
  Number of animals with ovarian cyst: 0
  Number of animals with ovulation: 27
[1]; [5]
  Cyst ratio (%): 0.00^b %
  Interval from stopping taking Altrenogest to ovulation (h): 172.15 ± 3.34^a h
  Number of animals with ovarian cyst: 0
  Number of animals with ovulation: 23
[1]; [6]
  Cyst ratio (%): 0.00^b %
  Interval from stopping taking Altrenogest to ovulation (h): 169.57 ± 2.19^a h
  Number of animals with ovarian cyst: 0
  Number of animals with ovulation: 22
[1]; [7]
  Cyst ratio (%): 0.00^b %
  Interval from stopping taking Altrenogest to ovulation (h): 194.25 ± 2.96^b h
  Number of animals with ovarian cyst: 0
  Number of animals with ovulation: 21
[1]; [8]
  Cyst ratio (%): 11.53^c %
  Interval from stopping taking Altrenogest to ovulation (h): 177.79 ± 4.75^a h
  Number of animals with ovarian cyst: 3
  Number of animals with ovulation: 24
[1]; [9]
  Cyst ratio (%): 15.38^c %
  Interval from stopping taking Altrenogest to ovulation (h): 187.67 ± 3.69^b h
  Number of animals with ovarian cyst: 4
  Number of animals with ovulation: 20
[1]; [10]
  Cyst ratio (%): 11.53^c %
  Interval from stopping taking Altrenogest to ovulation (h): 191.50 ± 5.74^b h
  Number of animals with ovarian cyst: 3
  Number of animals with ovulation: 22
[1]; [11]
  Cyst ratio (%): 79.17^c %
  Interval from stopping taking Altrenogest to ovulation (h): 210.00 ± 2.65^b h
  Number of animals with ovarian cyst: 19
  Number of animals with ovulation: 4
[1]; [12]
  Cyst ratio (%): 100.00^c %
  Number of animals with ovarian cyst: 24
  Number of animals with ovulation: 0
[1]; [13]
  Cyst ratio (%): 100.00^c %
  Number of animals with ovarian cyst: 24
  Number of animals with ovulation: 0
[1]; gilts, treatment groups 1, 2, 3, and 5, compared with batch farrowing with FTAI
  ovulation time: no significant difference
[1]; [14]
  number of ovarian cysts: increased
  time from stopping taking altrenogest to ovulation: prolonged
[1]; high-dose
  ovarian cysts: caused ovarian cysts
  ovulation in sows: inhibited
[1]; [15]
  ovarian cyst: no ovarian cyst was caused
  ovulation time: no significant change
[1]; sows, high-dose 80 μg/kg·BW (FIG. 5)
  ovarian cyst, B-scan ultrasonic inspection: presented as cyst; also recorded: ovarian cyst is presented
[1]; sows, high-dose 80 μg/kg·BW (FIG. 5), day 10 after stopping altrenogest
  ovulation, B-scan ultrasonic inspection: no ovulation was observed
[1]; sows, low-dose 12 μg/kg·BW (FIG. 4)
  ovulation, B-scan ultrasonic inspection: ovulate normally
[2]
  problems caused in sows: recessive estrus, ovarian cyst, anovulation, and pregnancy failure
